Measurements taken from patent US3968233A, “α-Amino-γ-butyrolactones as sedatives” (priority 1975, dated 1976).
“Also recorded” adds a separate entry of the source.

How the values were obtained:
[1] = Subacute toxicity, daily oral dosing for 6 consecutive days; assay type: in vivo, rat; conditions: 500 mg/kg daily for 6 consecutive days
Procedure: Accordingly, 8 rats were given 500 mg/kg daily for 6 consecutive days.

[2] = Enhancement of the hypnotic effect of sodium pentobarbital; assay type: in vivo, mouse
Procedure: Forty mg/kg of sodium pentobarbital was injected intraperitoneally into mice and note was taken of animals losing the righting reflex and for how long. Other mice received a preliminary treatment with AP-28 at a dosage of 250 and 500 mg/kg, intraperitoneally, and thereafter sodium pentobarbital was given to them.

[3] = Avoidance reflex in conditioned mice; assay type: in vivo, mouse; conditions: control 53.3 ± 4.5 sec
From the text: A conditioning cage was constructed of two chambers with free access between chambers. The floor of one compartment was electrified to make it possible to deliver a mild shock. Mice were conditioned by first giving a warning signal and then after a short period of time the shock was applied. Eventually the mice learned to leave the electrified compartment after the warning bell sounded and they were then judged to be conditioned. The average period of time, in this experiment, for control animals (4) to leave the compartment was 53.3 ± 4.5 sec. Four conditioned mice were administered AP-28 intraperitoneally with 250 mg/kg and their time was 60.6 ± 3.9 sec. Four more conditioned mice treated with 500 mg/kg of AP-28 required 77.5 ± 2.7 sec. to clear the compartment.

[4] = Excretion rate of intravenously-injected bromosulfonphthalein in bile; assay type: in vivo; conditions: single 500 mg/kg oral dose
Procedure: (§1) The effect of a single 500 mg/kg oral dose of AP-28 was determined on (a) diuresis in water-loaded rats, (b) choleresis, (c) the excretion rate of intravenously-injected bromosulfonphthalein in bile, (d) arterial blood pressure.

Arterial blood pressure = assay type: in vivo; conditions: single 500 mg/kg oral dose
Procedure: as §1

[5] = Clinical trial, 2nd group: strain and anxiety; assay type: in vivo, human; conditions: 500 to 1500 mg/day
Procedure: (§2) Clinical trials were performed on three groups of patients, partly hospitalized patients and partly outpatients. It was determined that the effect observed in the experimental pharmacological studies were useful in the treatment of humans as well.
The dose levels used with these patients varied between 500 and 1500 mg/day, divided into two or three doses which were given during the day.

[6] = Clinical trial, 3rd group: essential epilepsy; assay type: in vivo, human; conditions: 0.500 to 1.500 g daily, 10 to 30 days
Procedure: as §2
Four patients suffering from essential epilepsy were treated for periods of time varying between 10 and 30 days with daily doses ranging from 0.500 to 1.500 g. […] In the fourth patient it was possible to lower the anti-epileptic massive therapy they had been following for some time, and on which they were maintained throughout this study, by more than 50%.

[7] = AP-28 250 + sodium pentobarbital 40 mg/kg i.p.
[8] = AP-28 500 + sodium pentobarbital 40 mg/kg i.p.

In the case of `CCCCOC(=O)NC1CCOC1=O` (stereo not drawn) [AP-28, α-n-butoxycarbonyl-amino-γ-butyrolactone], the “sedative effect or other abnormal symptoms” value [1] is reported as “No sedative effect or other abnormal symptoms were observed”, the “tendency to accumulate in the organism” value [1] is reported as “no tendency for AP-28 to accumulate in the organism” and the Animals under hypnosis/treated [2, 7] is reported as 4/4. For the same compound, the “Duration of hypnosis in minutes (m ± SE)” value [2, 7] was 52.5 ± 13 min, the Animals under hypnosis/treated [2, 8] was 4/4 and the “Duration of hypnosis in minutes (m ± SE)” value [2, 8] was 75.2 ± 21.6 min. The “time to leave the electrified compartment” value ([3]; 250 mg/kg i.p.) was 60.6 ± 3.9 s, the “time to leave the electrified compartment” value ([3]; 500 mg/kg i.p.) was 77.5 ± 2.7 s and the “excretion rate of bromosulfonphthalein in bile” value [4] was “No treatment caused any significant change”. The arterial blood pressure (Arterial blood pressure) was “No treatment caused any significant change”, the “somnolence, daily torpor or motive conceptual slowness” value [5] was “in no case somnolence, daily torpor or motive conceptual slowness were observed; also recorded: without causing daily drowsiness or torpor” and the “disorders or difficulty in usual working activity” value ([5]; outpatients) was “No outpatient reported disorders or difficulty in carrying out their usual working activity”. For the same compound, the “lowering of anti-epileptic massive therapy, fourth patient” value [6] was “more than 50%”.
